Test results from ChEMBL document CHEMBL5154672, “Design and synthesis of HDAC inhibitors to enhance the therapeutic effect of diffuse large B-cell lymphoma by improving metabolic stability and pharmacokinetic characteristics” (Eur J Med Chem, 2022).

Columns and labels:
[1] = Metabolic stability in human liver microsomes assessed as intrinsic clearance measured for 75 to 130 mins by LC-MS/MS analysis; type: ADME, Microsome; settings: time 75-130 min; for microsomal CLint: liver microsomes, read-out: CLH
Histone deacetylase 1 = Histone deacetylase 1 (Homo sapiens, UniProt Q13547); test: Inhibition of HDAC1 (unknown origin) using RHKK(Ac)AMC fluorogenic peptide as substrate preincubated for 10 mins followed by substrate addition for 1 hr in presence of ATP by fluoroscence based assay
Sequence of Histone deacetylase 1 (Q13547 whole entry): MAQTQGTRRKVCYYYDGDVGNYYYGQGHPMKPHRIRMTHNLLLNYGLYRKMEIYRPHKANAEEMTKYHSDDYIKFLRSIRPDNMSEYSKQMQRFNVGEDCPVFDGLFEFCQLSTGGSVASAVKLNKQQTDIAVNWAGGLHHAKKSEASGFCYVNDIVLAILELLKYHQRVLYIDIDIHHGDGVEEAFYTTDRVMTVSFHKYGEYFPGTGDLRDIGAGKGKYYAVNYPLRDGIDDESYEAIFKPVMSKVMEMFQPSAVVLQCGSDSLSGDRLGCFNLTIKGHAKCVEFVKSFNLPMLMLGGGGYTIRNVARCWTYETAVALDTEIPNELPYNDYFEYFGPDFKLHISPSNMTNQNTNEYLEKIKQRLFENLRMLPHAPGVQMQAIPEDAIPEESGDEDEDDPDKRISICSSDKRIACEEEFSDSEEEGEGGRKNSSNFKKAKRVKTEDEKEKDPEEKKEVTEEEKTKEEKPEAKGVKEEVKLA

[2] = Metabolic stability in human liver microsomes assessed as half life measured for 75 to 130 mins by LC-MS/MS analysis; type: ADME, Microsome; settings: time 75-130 min; for half-life: liver microsomes
A549 = test: Antiproliferative activity against human A549 cells assessed as remaining cell activity at 2 uM incubated for 72 hrs by luminescence assay relative to control; type: functional
MDA-MB-231 = test: Antiproliferative activity against human MDA-MB-231 cells assessed as remaining cell activity at 2 uM incubated for 72 hrs by luminescence assay relative to control; type: functional
TMD8 = test: Antiproliferative activity against human TMD8 cells assessed as remaining cell activity at 2 uM incubated for 72 hrs by luminescence assay relative to control; type: functional
HCT-116 = test: Antiproliferative activity against human HCT-116 cells assessed as remaining cell activity at 2 uM incubated for 72 hrs by luminescence assay relative to control; type: functional

SMILES: Nc1cc(F)ccc1NC(=O)c1ccc(CN2CC/C(=C\c3ccccc3)C2=O)cc1
- microsomal CLint [1]: 11.3 µL/min/mg
- IC50 (Histone deacetylase 1): 424 nM
- half-life [2]: 2.1 h

SMILES: COc1ccc(/C=C2\CCCN(Cc3ccc(C(=O)Nc4ccc(F)cc4N)cc3)C2=O)cc1
- IC50 (Histone deacetylase 1): 906 nM

SMILES: Nc1ccccc1NC(=O)c1ccc(CN2CCC/C(=C\c3cccnc3)C2=O)cc1
- microsomal CLint [1]: 5.02 µL/min/mg
- Activity (A549): 72.41%
- IC50 (Histone deacetylase 1): 219 nM
- Activity (MDA-MB-231): 58.3%
- Activity (TMD8): 23.83%
- half-life [2]: 4.6 h
- Activity (HCT-116): 57.19%

SMILES: Nc1cc(F)ccc1NC(=O)c1ccc(CN2CCC/C(=C\c3ccccn3)C2=O)cc1
- IC50 (Histone deacetylase 1): 1350 nM

SMILES: Nc1ccccc1NC(=O)c1ccc(CN2CCC/C(=C\c3cccc(Cl)c3)C2=O)cc1
- IC50 (Histone deacetylase 1): 636 nM

SMILES: Nc1cc(F)ccc1NC(=O)c1ccc(CN2CCC/C(=C\c3ccncc3)C2=O)cc1
- IC50 (Histone deacetylase 1): 2510 nM

SMILES: Nc1ccccc1NC(=O)c1ccc(CN2CCC/C(=C\c3ccncc3)C2=O)cc1
- microsomal CLint [1]: 2.96 µL/min/mg
- Activity (A549): 98.64%
- IC50 (Histone deacetylase 1): 270 nM
- Activity (MDA-MB-231): 77.05%
- Activity (TMD8): 26.34%
- half-life [2]: 7.78 h
- Activity (HCT-116): 66.57%

SMILES: Nc1cc(F)ccc1NC(=O)c1ccc(CN2CCC/C(=C\c3cccnc3)C2=O)cc1
- IC50 (Histone deacetylase 1): 2340 nM

SMILES: Nc1cc(F)ccc1NC(=O)c1ccc(CN2CCC/C(=C\c3cccc(Cl)c3)C2=O)cc1
- IC50 (Histone deacetylase 1): 1940 nM

SMILES: Nc1cc(F)ccc1NC(=O)c1ccc(CN2CCC/C(=C\c3ccc(Br)cc3)C2=O)cc1
- IC50 (Histone deacetylase 1): 1960 nM

SMILES: Nc1cc(F)ccc1NC(=O)c1ccc(CN2CCC/C(=C\c3ccccc3Cl)C2=O)cc1
- IC50 (Histone deacetylase 1): 1090 nM

SMILES: Nc1cc(Br)ccc1NC(=O)c1ccc(CN2CCC/C(=C\c3ccc(Cl)cc3)C2=O)cc1
- IC50 (Histone deacetylase 1): > 10000 nM

SMILES: Nc1cc(F)ccc1NC(=O)c1ccc(CN2CCC/C(=C\c3ccc(Cl)cc3)C2=O)cc1
- IC50 (Histone deacetylase 1): 617 nM

SMILES: Cc1ccccc1/C=C1\CCCN(Cc2ccc(C(=O)Nc3ccc(F)cc3N)cc2)C1=O
- IC50 (Histone deacetylase 1): 2450 nM

SMILES: Nc1ccccc1NC(=O)c1ccc(CN2CCC/C(=C\c3ccc(Cl)cc3)C2=O)cc1
- microsomal CLint [1]: 9.57 µL/min/mg
- IC50 (Histone deacetylase 1): 487 nM
- half-life [2]: 2.42 h

SMILES: Cc1cccc(/C=C2\CCCN(Cc3ccc(C(=O)Nc4ccc(F)cc4N)cc3)C2=O)c1
- IC50 (Histone deacetylase 1): 928 nM

SMILES: Nc1ccccc1NC(=O)c1ccc(CN2CCC/C(=C\c3ccc4ccccc4c3)C2=O)cc1
- IC50 (Histone deacetylase 1): 692 nM

SMILES: Nc1ccccc1NC(=O)c1ccc(CN2CCC/C(=C\c3ccccc3)C2=O)cc1
- microsomal CLint [1]: 11 µL/min/mg
- IC50 (Histone deacetylase 1): 195 nM
- half-life [2]: 2.1 h

SMILES: Nc1cc(F)ccc1NC(=O)c1ccc(CN2CCC/C(=C\c3ccccc3)C2=O)cc1
- IC50 (Histone deacetylase 1): 2210 nM

SMILES: Cc1ccc(/C=C2\CCCN(Cc3ccc(C(=O)Nc4ccc(F)cc4N)cc3)C2=O)cc1
- IC50 (Histone deacetylase 1): 794 nM

SMILES: Nc1ccccc1NC(=O)c1ccc(CN2CC/C(=C\c3ccccn3)C2=O)cc1
- Activity (A549): 74.98%
- IC50 (Histone deacetylase 1): 82 nM
- Activity (MDA-MB-231): 60.99%
- Activity (TMD8): 15.5%
- Activity (HCT-116): 56.41%

SMILES: Nc1cc(F)ccc1NC(=O)c1ccc(CN2CC/C(=C\c3ccccn3)C2=O)cc1
- Intrinsic clearance in human liver microsomes ([1]; microsomes): 10.2 µL/min/mg
- Activity (A549): 93.24%
- IC50 (Histone deacetylase 1): 866 nM
- Activity (MDA-MB-231): 83.37%
- Activity (TMD8): 29.75%
- t1/2 ([2]; microsomes): 15.6 h
- Activity (HCT-116): 121.48%

SMILES: Nc1ccccc1NC(=O)c1ccc(CN2CCC/C(=C\c3ccc(Cl)c(F)c3)C2=O)cc1
- IC50 (Histone deacetylase 1): 572 nM

SMILES: Nc1cc(F)ccc1NC(=O)c1ccc(CN2CCC/C(=C\c3ccco3)C2=O)cc1
- IC50 (Histone deacetylase 1): 1200 nM

SMILES: Nc1ccccc1NC(=O)c1ccc(CN2CCC/C(=C\c3ccccc3Cl)C2=O)cc1
- microsomal CLint [1]: 9.3 µL/min/mg
- IC50 (Histone deacetylase 1): 396 nM
- half-life [2]: 2.48 h

SMILES: Nc1cc(F)ccc1NC(=O)c1ccc(CN2CCC/C(=C\c3ccc(F)cc3)C2=O)cc1
- IC50 (Histone deacetylase 1): 2630 nM

SMILES: Cc1ccc(NC(=O)c2ccc(CN3CCC/C(=C\c4ccc(Cl)cc4)C3=O)cc2)c(N)c1
- IC50 (Histone deacetylase 1): > 10000 nM

SMILES: Nc1ccccc1NC(=O)c1ccc(CN2CCC/C(=C\c3ccc(Cl)c(C(F)(F)F)c3)C2=O)cc1
- IC50 (Histone deacetylase 1): 1490 nM

SMILES: Nc1cc(F)ccc1NC(=O)c1ccc(CN2CCC/C(=C\c3ccc4ccccc4c3)C2=O)cc1
- IC50 (Histone deacetylase 1): 1200 nM
